Assay results reported in patent publication US12398119B2, “Piperazine azaspiro derivatives” (PFIZER INC., priority 2018, dated 2025).
Where two headings read alike, the source gives them in different places.

Target: T1, Human M4 mAChR (Homo sapiens, UniProt P08173)
T1 construct: host or cells: HEK293 (Sor-L9 HEK293 human/M4/GloSensor Cell Clone Number 40)
T1 sequence (P08173 1-479): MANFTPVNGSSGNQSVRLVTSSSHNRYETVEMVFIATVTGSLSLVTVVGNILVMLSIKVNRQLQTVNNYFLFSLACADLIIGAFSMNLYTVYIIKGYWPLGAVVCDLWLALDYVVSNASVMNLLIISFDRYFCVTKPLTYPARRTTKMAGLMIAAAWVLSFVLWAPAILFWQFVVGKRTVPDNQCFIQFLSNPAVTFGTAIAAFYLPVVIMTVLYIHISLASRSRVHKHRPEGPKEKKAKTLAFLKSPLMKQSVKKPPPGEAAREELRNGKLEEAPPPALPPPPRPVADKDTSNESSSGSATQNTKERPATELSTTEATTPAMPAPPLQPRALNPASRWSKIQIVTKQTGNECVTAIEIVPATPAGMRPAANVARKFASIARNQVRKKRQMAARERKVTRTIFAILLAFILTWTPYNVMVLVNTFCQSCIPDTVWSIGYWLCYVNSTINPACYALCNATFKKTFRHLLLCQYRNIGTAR
Assay: Muscarinic hM4 Agonist GloSensor cAMP Assay
Type: cell-based
Method: Muscarinic hM4 Agonist GloSensor cAMP Assay Methods
Compounds were prepared in advance of the assay. Test compounds were solubilized in 100% dimethyl sulfoxide (DMSO, Sigma D8418) to a concentration of 30 mM. A 10-point intermediate dilution series using half log dilutions was created in 100% DMSO with a top concentration of 4 mM. The serially diluted compounds were spotted as 200 nL/well in a 384-well plate (Matrix Catalog Number 4325). The final compound concentration range in the assay was […] to 0.3 nM with a final DMSO concentration of 0.25%.
Human M4 mAChR expressing stable cell lines were generated using a parental HEK cell expressing the GloSensor construct (Promega Sor-L9 HEK293 human/M4/GloSensor Cell Clone Number 40). The cells were grown in 90% Dulbecco's Modified Eagle Medium (DMEM, Gibco 11960), 10% fetal bovine serum (FBS, Hyclone CH.30160-03), 1% Penicillin/Streptomycin (Gibco 15070-063), 500 µg/mL Geneticin (Gibco 10131-027), 200 µg/mL Hygromycin B (Invitrogen 10687-010) and 1% Glutamax (Thermo Fisher 35050061).
One day prior to assay, the cells were lifted using dissociation buffer (Gibco 13151-014) and spun in a centrifuge at 250 times gravity for 5 minutes at room temperature. Supernatant was removed and the cell pellet was resuspended in growth media to a concentration of […]. Cells were then added to white poly-d-lysine coated plates (Becton Dickinson 356661) as 40 μL per well (25,000 cells) and incubated overnight (20-24 hours) in a 37° C. humidified incubator with 5% carbon dioxide (C02).
The following day, culture media was removed from the cell plates and replaced with […] equilibration medium containing 88% CO2-independent medium (Invitrogen 18045088), 10% FBS and 2% GloSensor cAMP reagent (Promega E1291) that had been warmed to 37° C. Plates were then covered and incubated for 2 hours at room temperature while protected from light.
To the previously prepared serially diluted compound plates, 200 nL of 4 mM ACh (Sigma A2661, 10 μM final) or 200 nL of 100% DMSO (0.25% final) was added to the positive and negative control wells, respectively. Compound plates were then diluted by adding 16 μL of C02-independent media containing 10% FBS and an EC80 concentration of isoproterenol (Sigma 16504). Prior to compound testing, concentration response curves were run for isoproterenol to determine the EC80 concentration. At the end of the 2 hour equilibration, 10 µL was transferred from the compound plates to the cell plates. The cell plates were incubated an additional 7 minutes at room temperature and then read using a Multi-label EnVision plate reader (Perkin Elmer) for luminescence.
The raw data, expressed as relative light units, was analyzed using Activity Base (IDBS). The percent effect at each compound concentration was calculated based on and relative to the amount of cAMP produced by the positive and negative control wells contained on each assay plate. The positive control wells contained an EC100 concentration of ACh and the negative control wells contained only DMSO. The concentration and % effect values were fit using a four-parameter logistic dose response equation, and the concentration required for 50% effect (EC50) was determined as well as the maximum asymptote of the concentration response curve to define the efficacy.

[1] = Emax: maximum asymptote of concentration response curve, relative to ACh positive control (EC100) and DMSO, geometric mean, read-out: % maximum effect
[2] = HEK293 human/M4/GloSensor cells, EC80 isoproterenol, geometric mean, number of determinations in parentheses, read-out: EC50
[3] = enantiomers reported in footnotes to Table 1, number of determinations in parentheses, read-out: M4 EC50

| Emax [1] [%] | EC50 [2] [nM] | EC50 [3] [nM] | Emax (enantiomers reported in footnotes to Table 1, number of determinations in parentheses, read-out: M4 Emax) [%] | SMILES |
| --- | --- | --- | --- | --- |
| 96.6 | < 1.75 | – | – | CCOC(=O)N1CC2(CC[C@@H](N3CCN(c4ncccc4-c4ccncn4)CC3)C2)C1 [Example 46, ethyl (6R)-6-{4-[3-(pyrimidin-4-yl)pyridin-2-yl]piperazin-1-yl}-2-azaspiro[3.4]octane-2-carboxylate] |
| 74.7 | 1.17 | – | – | CCOC(=O)N1CC2(CCC(N3CCN(c4ncccc4-c4ccc(OC)nc4)CC3)C2)C1 (stereo not drawn) [Example 38, ethyl 6-[4-(6′-methoxy-3,3′-bipyridin-2-yl)piperazin-1-yl]-2-azaspiro[3.4]octane-2-carboxylate] |
| – | – | > 10000 | – | CCOC(=O)N1CC2(CCC(N3CCN(c4nccnc4OC)CC3)C2)C1 (single isomer, unassigned) [enantiomer of Example 27, ethyl 6-[4-(3-methoxypyrazin-2-yl)piperazin-1-yl]-2-azaspiro[3.4]octane-2-carboxylate] |
| 83.9 | 8.49 | – | – | CCOC(=O)N1CC2(CCC(N3CCN(c4ncccc4-c4cnc(O)cn4)CC3)C2)C1 (stereo not drawn) [Example 48, ethyl 6-{4-[3-(5-hydroxypyrazin-2-yl)pyridin-2-yl]piperazin-1-yl}-2-azaspiro[3.4]octane-2-carboxylate] |
| 92.6 | 4.82 | – | – | CCOC(=O)N1CCC2(CC(N3CCN(c4ncccc4-c4cnn(C)c4)CC3)C2)C1 (stereo not drawn) [Example 13, ethyl 2-{4-[3-(1-methyl-1H-pyrazol-4-yl)pyridin-2-yl]piperazin-1-yl}-6-azaspiro[3.4]octane-6-carboxylate] |
| 104 | 24.5 | – | – | CCOC(=O)N1CCC2(CC(N3CCN(c4ncccc4-c4cscn4)CC3)C2)C1 (stereo not drawn) [Example 16, ethyl 2-{4-[3-(1,3-thiazol-4-yl)pyridin-2-yl]piperazin-1-yl}-6-azaspiro[3.4]octane-6-carboxylate] |
| – | – | > 10000 | – | CCOC(=O)N1CCC2(CC(N3CCN(c4ncccc4-c4ccc(C#N)cn4)CC3)C2)C1 (single isomer, unassigned) [enantiomer of Example 23, ethyl 2-[4-(5-cyano-2,3′-bipyridin-2′-yl)piperazin-1-yl]-6-azaspiro[3.4]octane-6-carboxylate] |
| 93.7 | 1.2 | – | – | CCOC(=O)N1CC2(CCC(N3CCN(c4ncccc4-c4cncnc4)CC3)C2)C1 (stereo not drawn) [Example 14, ethyl 6-{4-[3-(pyrimidin-5-yl)pyridin-2-yl]piperazin-1-yl}-2-azaspiro[3.4]octane-2-carboxylate] |
| 68.6 | 1.99 | – | – | CCOC(=O)N1CC2(CC[C@@H](N3CCN(c4ncccc4-c4nnc(C)o4)CC3)C2)C1 [Example 51, ethyl (6R)-6-{4-[3-(5-methyl-1,3,4-oxadiazol-2-yl)pyridin-2-yl]piperazin-1-yl}-2-azaspiro[3.4]octane-2-carboxylate] |
| 92.3 | 1.31 | – | – | CCOC(=O)N1CC2(CCC(N3CCN(c4ncccc4-c4cnsn4)CC3)C2)C1 (stereo not drawn) [Example 33, ethyl 6-{4-[3-(1,2,5-thiadiazol-3-yl)pyridin-2-yl]piperazin-1-yl}-2-azaspiro[3.4]octane-2-carboxylate] |
| 98.7 | 2.23 | – | – | CCOC(=O)N1CC2(CC[C@@H](N3CCN(c4ncccc4-c4cnccn4)CC3)C2)C1 [Example 8, ethyl (6R)-6-{4-[3-(pyrazin-2-yl)pyridin-2-yl]piperazin-1-yl}-2-azaspiro[3.4]octane-2-carboxylate] |
| – | – | 3600 | 95.3 | CCOC(=O)N1CC2(CCC(N3CCN(c4cccnc4OC(F)(F)F)CC3)C2)C1 (single isomer, unassigned) [enantiomer of Example 20, ethyl 6-{4-[2-(trifluoromethoxy)pyridin-3-yl]piperazin-1-yl}-2-azaspiro[3.4]octane-2-carboxylate] |
| 89.4 | < 0.389 | – | – | CCOCCn1cc(-c2cccnc2N2CCN([C@@H]3CCC4(C3)CN(C(=O)OCC)C4)CC2)cn1 [Example 50, ethyl (6R)-6-(4-{3-[1-(2-ethoxyethyl)-1H-pyrazol-4-yl]pyridin-2-yl}piperazin-1-yl)-2-azaspiro[3.4]octane-2-carboxylate] |
